Our source for the melting point values is patent publication US6656937B2, “Substituted glutarimides and their use as inhibitors of IL-12 production” (Gruenenthal, GmbH, priority 2000, dated 2003).

Structures can show the parent of a compound that is named as a salt. A value given as a limit tells only on which side of the number the result lay.

Broadly, the melting point is the temperature, or range, at which the solid turns liquid. As for `O=C1CCC(NCc2cccc(Br)c2)C(=O)N1` (racemic) (as salt: hydrochloride) [Example 2.35, 3-(3-bromobenzylamino) piperidine-2,6-dione], the melting point fell in the range of 229 to 232 °C. On to `O=C1CCC(NCc2ccc3ccccc3c2)C(=O)N1` (racemic) [Example 2.12, 3-[(naphth-2-ylmethyl)amino]piperidine-2,6-dione], for which the melting point was 120 to 125 °C (dec.). Consider `CC(=O)c1cccc(NCC2CCC(=O)NC2=O)c1` (stereo not shown) [Example 11.9, 3-[(3-acetylphenylamino)methyl]piperidine-2,6-dione], for which the melting point was 129 to 132 °C. Turning to `Cc1cccc(Cl)c1CNC1CCC(=O)NC1=O` (racemic) (as salt: hydrochloride) [Example 2.15, 3-(2-chloro-6-methylbenzylamino) piperidine-2,6-dione], the melting point fell in the range of 238 to 240 °C.

Regarding `O=C1CCC(NCc2ccc(C(F)(F)F)cc2)C(=O)N1` (racemic) (as salt: hydrochloride) [Example 2.21, 3-(4-trifluoromethylbenzylamino) piperidine-2,6-dione], the melting point lay within 252 to 255 °C. The figure for `O=C1CCC(NCc2cccc(F)c2F)C(=O)N1` (racemic) (as salt: hydrochloride) [Example 2.7, 3-(2,3-difluorobenzylamino) piperidine-2,6-dione] is 206 to 212 °C (dec.); for `O=C1CCC(CSCCc2ccccc2)C(=O)N1` (stereo not shown) [Example 13.2, 3-phenethylsulfanylmethyl piperidine-2,6-dione] it is 78 °C. The figure for `O=C1CCC(NCc2cccc3ccccc23)C(=O)N1` (racemic) (as salt: hydrochloride) [Example 2.6, 3-[(naphth-1-ylmethyl)amino]piperidine-2,6-dione] is 188 °C (dec.).

For `O=C1CCC(CNc2ccc(Br)cc2)C(=O)N1` (stereo not shown) [Example 11.1, 3-[(4-bromophenylamino)methyl]piperidine-2,6-dione], the melting point fell in the range of 149 to 150 °C. The figure for `O=C1CCC(NCc2cc(F)ccc2F)C(=O)N1` (racemic) (as salt: hydrochloride) [Example 2.4, 3-(2,5-difluorobenzylamino) piperidine-2,6-dione] is 208 °C (dec.).

The compound `NNC(=O)c1ccccc1CN[C@H]1CCC(=O)NC1=O` (as salt: hydrobromid) [Example 8.6, 2-[(3S)-(2,6-dioxopiperidin-3-ylamino)methyl]benzoic acid hydrazide] showed a melting point of 241 to 242 °C. As for `O=C1CCC(NCc2cc(C(F)(F)F)cc(C(F)(F)F)c2)C(=O)N1` (racemic) (as salt: hydrochloride) [Example 2.34, 3-[3,5-bis(trifluoromethyl)benzylamino]piperidine-2,6-dione], the figure is 263 to 265 °C; as for `O=C1CCC(NCc2ccc(Cl)c(Cl)c2)C(=O)N1` (racemic) (as salt: hydrochloride) [Example 2.33, 3-(3,4-dichlorobenzylamino) piperidine-2,6-dione], 252 to 254 °C. The figure for `CC(=O)c1ccc(NCC2CCC(=O)NC2=O)cc1` (stereo not shown) [Example 11.16, 3-[(4-acetylphenylamino)methyl]piperidine-2,6-dione] is 160 °C; for `COc1ccc(NCC2CCC(=O)NC2=O)cc1` (stereo not shown) [Example 11.13, 3-[(4-methoxyphenylamino)methyl]piperidine-2,6-dione] it is 131 to 134 °C; for `O=C1CCC(NCc2ccc(Cl)cc2)C(=O)N1` (racemic) (as salt: hydrochloride) [Example 2.37, 3-(4-chlorobenzylamino) piperidine-2,6-dione] it is 262 to 265 °C. As for `O=C1CCC(NCc2ccc(OC(F)(F)F)cc2)C(=O)N1` (racemic) (as salt: hydrochloride) [Example 2.36, 3-(4-trifluoromethoxybenzylamino) piperidine-2,6-dione], the figure is 253 to 255 °C; as for `O=C1CCC(NCc2ccc(F)cc2)C(=O)N1` (racemic) (as salt: hydrochloride) [Example 2.23, 3-(4-fluorobenzylamino) piperidine-2,6-dione], 241 to 242 °C; as for `Cc1cccc(CNC2CCC(=O)NC2=O)c1` (racemic) (as salt: hydrochloride) [Example 2.20, 3-(3-methylbenzylamino) piperidine-2,6-dione], 240 to 242 °C. Compound `O=C1CCC(NCc2cccc(Cl)c2)C(=O)N1` (racemic) (as salt: hydrochloride) [Example 2.26, 3-(3-chlorobenzylamino) piperidine-2,6-dione] had a melting point of 237 to 238 °C. The figure for `O=C1CCC(CNc2cccc(C(F)(F)F)c2)C(=O)N1` (stereo not shown) [Example 11.2, 3-[(3-trifluoromethylphenylamino)methyl]piperidine-2,6-dione] is 135 to 138 °C. Take `COc1ccc(CNC2CCC(=O)NC2=O)c(OC)c1` (racemic) (as salt: hydrochloride) [Example 2.2, 3-(2,4-dimethoxybenzylamino) piperidine-2,6-dione]: the melting point was 214 °C (dec.).

Regarding `O=C1CCC(NCc2cccc(Cl)c2Cl)C(=O)N1` (racemic) (as salt: hydrochloride) [Example 2.32, 3-(2,3-dichlorobenzylamino) piperidine-2,6-dione], the melting point was in the range of 246 to 248 °C. `O=C1CC[C@H](NCc2ccccc2C(=O)Nc2ccccc2)C(=O)N1` (as salt: hydrobromid) [Example 8.7, 2-[(3S)-(2,6-dioxopiperidin-3-ylamino)methyl]-N-phenylbenzamide] yielded a melting point of 136 to 138 °C.

As for `O=C1CCC(CNc2ccc(C(c3ccccc3)(c3ccccc3)c3ccccc3)cc2)C(=O)N1` (stereo not shown) [Example 11.6, 3-[(4-tritylphenylamino)methyl]piperidine-2,6-dione], the melting point lay in the range of 221 to 225 °C.

`O=C1CCC(NCc2cc(F)cc(C(F)(F)F)c2)C(=O)N1` (racemic) (as salt: hydrochloride) [Example 2.18, 3-[3-fluoro-5-(trifluoromethyl)benzylamino]piperidine-2,6-dione] yielded a melting point of 241 to 243 °C. The figure for `O=C1CCC(CNc2ccc(-c3ccccc3)cc2)C(=O)N1` (stereo not shown) [Example 11.4, 3-(biphenyl-4-ylaminomethyl) piperidine-2,6-dione] is 135 to 138 °C. Turning to `O=C1CCC(NCc2ccccc2C(F)(F)F)C(=O)N1` (racemic) (as salt: hydrochloride) [Example 2.1, 3-(2-trifluoromethylbenzylamino) piperidine-2,6-dione], the melting point is > 250 °C (dec.). The compound `CCOc1ccccc1CNC1CCC(=O)NC1=O` (racemic) (as salt: hydrochloride) [Example 2.39, 3-(2-ethoxybenzylamino) piperidine-2,6-dione] showed a melting point of 208 to 212 °C. With `O=C1CCC(NCc2ccc(F)cc2Cl)C(=O)N1` (racemic) (as salt: hydrochloride) [Example 2.13, 3-(2-chloro-4-fluorobenzylamino) piperidine-2,6-dione], the melting point is 241 to 242 °C. The figure for `O=C1CCC(NCc2cc(Cl)ccc2Cl)C(=O)N1` (racemic) (as salt: hydrochloride) [Example 2.40, 3-(2,5-dichlorobenzylamino) piperidine-2,6-dione] is 242 to 246 °C; for `NC(=O)c1ccccc1NCC1CCC(=O)NC1=O` (stereo not shown) [Example 11.15, 2-[(2,6-dioxopiperidin-3-ylmethyl)amino]benzamide] it is 203 to 206 °C.

In the case of `O=C1CCC(NCc2ccc(Cl)cc2Cl)C(=O)N1` (racemic) (as salt: hydrochloride) [Example 2.28, 3-(2,4-dichlorobenzylamino) piperidine-2,6-dione], the melting point lay in the range of 240 to 242 °C.

`O=C1CCC(CNc2cccc3ccccc23)C(=O)N1` (stereo not shown) [Example 11.3, 3-(naphth-1-ylaminomethyl) piperidine-2,6-dione] yielded a melting point of 145 to 148 °C.

`NC(=O)c1ccccc1CN[C@@H]1CCC(=O)NC1=O` (as salt: hydrobromid) [Example 8.12, 2-[(3R)-(2,6-dioxopiperidin-3-ylamino)methyl]benzamide] had a melting point of 232 to 233 °C. The figure for `COc1cccc(CNC2CCC(=O)NC2=O)c1` (racemic) (as salt: hydrochloride) [Example 2.41, 3-(3-methoxybenzylamino) piperidine-2,6-dione] is 217 to 219 °C. With `Cc1ccc(CNC2CCC(=O)NC2=O)cc1` (racemic) (as salt: hydrochloride) [Example 2.38, 3-(4-methylbenzylamino) piperidine-2,6-dione], the melting point was 256 °C (dec.). Compound `O=C1CCC(NCc2ccccc2Br)C(=O)N1` (racemic) (as salt: hydrochloride) [Example 2.30, 3-(2-bromobenzylamino) piperidine-2,6-dione] had a melting point of 244 to 246 °C. As for `O=C1CCC(NCc2cc(F)cc(F)c2)C(=O)N1` (racemic) (as salt: hydrochloride) [Example 2.5, 3-(3,5-difluorobenzylamino) piperidine-2,6-dione], the figure is 230 to 236 °C (dec.). The figure for `Cc1ccccc1CNC1CCC(=O)NC1=O` (racemic) (as salt: hydrochloride) [Example 2.16, 3-(2-methylbenzylamino) piperidine-2,6-dione] is 235 to 240 °C; for `O=C1CCC(NCc2cccc(OC(F)(F)F)c2)C(=O)N1` (racemic) (as salt: hydrochloride) [Example 2.11, 3-(3-trifluoromethoxybenzylamino) piperidine-2,6-dione] it is 199 to 201 °C. In the case of `CN(Cc1cccc2ccccc12)C1CCC(=O)NC1=O` (racemic) [Example 4.5, 3-(methylnaphth-1-ylmethylamino) piperidine-2,6-dione], the melting point was 157 to 162 °C. `NC(=O)c1ccccc1CN[C@H]1CCC(=O)NC1=O` (as salt: hydrobromid) [Example 8.3, 2-[(3S)-(2,6-dioxopiperidin-3-ylamino)methyl]benzamide]: the melting point is 155 to 156 °C (dec.).
